The target of one data set is T1, wt-CFTR (Homo sapiens, UniProt P13569).
T1 construct: expressed in transfected cells
The experiment in a line: Live-cell photoaffinity labeling, streptavidin pull-down and CFTR Western blot. Particulars: wt-CFTR CFBE41o- cells, 25-fold excess (25 μM) competitor 30 min before probe (1 μM). Type of data set: binding. The procedure:
Wt-CFTR or F508del-CFTR CFBE41o- cells were plated at 2–2.5 × 10^6 cells/plate in 6 cm diameter dishes. The day after, sodium butyrate (5–2.5 mM) was added for 24 h; next, the medium was exchanged with fresh one supplemented with DMSO (0.25%) (276855, Sigma-Aldrich) or probe (1 μM). For competition experiments, a 25-fold excess of ARN23765 (25 μM) was added 30 min before probe’s addition. For the analysis of “corrected” F508del-CFTR, F508del-CFTR CFBE41o- cells were kept at 27 °C for 24 h before adding the probes. Probes were incubated with cells for 2 h, then the medium was removed, and plates were washed twice with phosphate buffer saline (PBS). Cells were placed on ice and irradiated for 5 min at a wavelength of 365 nm using a 100-W UV-lamp (95–0127–02 model B100-AP, Analytik Jena). Cells were harvested with trypsin (T4299, Sigma-Aldrich), washed with PBS (D8537, Sigma-Aldrich), and pellets were stored at −80 °C until used, centrifuged at 300 × g and washed twice with PBS (D8537, Sigma-Aldrich). Pellets from in-cell photoaffinity labeling with alkyne-probes (PAP_1 and PAP_2) were lysed in PBS plus protease inhibitor cocktail (78429, Thermo Scientific) by sonication. The suspension was centrifuged at 800 × g for 20 min at 4 °C to discard nuclei and cell debris. The total extracted proteins were quantified with the bicinchoninic acid (BCA) protein assay (23225, Thermo Scientific) and subjected to CuAAC before proceeding with pull-down. Pellets from in-cell photoaffinity labeling with desthio-biotinylated (DS-biot) probes (PAP_1 DS-biot, PAP_2 DS-biot, PAP_N1 DS-biot, PAP_N2 DS-biot) were lysed with a modified RIPA buffer [50 mM tris-HCl pH 8, 150 mM NaCl, 0.5% Triton-X100, 0.2% SDS, 1 mM ethylenediaminetetraacetic acid (EDTA)] supplemented with protease inhibitor cocktail and centrifuged at 10.000× g for 10 min. The protein content in the supernatant was quantified by BCA protein assay. Protein lysate (200 μg) was diluted to 800 μL and the Triton-X100 percentage was reduced to 0.2% before proceeding to pull-down.
Copper-catalyzed azide–alkyne cycloaddition (CuAAC) was performed according to a previously described protocol.[62] Briefly, to the protein preparation (250 μL at 1 mg/mL protein concentration) the following reagents were added at the indicated final concentrations: 100 μM 5/6-TAMRA-azide-desthiobiotin (CLK-1110–5, Jena Bioscience), 1.0 mM tris-(2-carbossietil)phosphine (TCEP, C4706, Sigma-Aldrich), 100 μM tris-[(1-benzyl-1H-1,2,3-triazol-4-yl)methyl]amine (TBTA, 678937, Sigma-Aldrich), 1.0 mM CuSO4.5H2O (Sigma), and 0.8% sodium dodecyl sulfate (SDS). TBTA was first dissolved in DMSO at 83.5 mM and then diluted with four volumes of tert-butanol. The reaction was mixed by vortexing and incubated for 1 h at 25 °C. After the reaction time, proteins were precipitated with 5 volumes of cold acetone overnight at −20 °C. Samples were centrifuged for 20 min at 20.000× g, and the pellets were washed with methanol, air-dried, and finally resuspended with 600 μL of 1% SDS. SDS concentration was then diluted to 0.2% with PBS before proceeding to pull-down.
High capacity streptavidin agarose (20359, Thermo Scientific) (25 μL) was added to PAP-labeled cell extracts for 1 h at room temperature under gentle rotation. The streptavidin beads were collected by centrifugation and washed four times with lysis buffer. Resin-bound proteins were eluted with 45 μL of 5 mM biotin (B4501, Sigma-Aldrich) for 30 min at room temperature and analyzed with Western blot for CFTR expression. Input samples (4 and 8 μg for wt-CFTR and F508del-CFTR CFBE41o-, respectively) were collected immediately before incubation with streptavidin resin. Input and pulled-down samples were analyzed with WB as described in the supplementary methods.

The next data set concerns the target T2, CFTR MSD1 (Homo sapiens, UniProt P13569).
T2 construct: MSD1 (residues 1–380); expressed in transfected cells; host or cells: HEK293 (transient, JetPEI)
The data set is described as follows: Cycloheximide chase assay in transfected HEK293 cells. It counts as cell-based. The note with it: HEK293, 10 nM 24 h, then 6 h of cycloheximide treatment. The procedure: (§1) HEK293 cells were transfected with MSD1- or MSD2-fragments as previously described.[39] After 18 h, cells were treated with either 0.2% DMSO or ARN23765 (10 nM). Following 24 h treatment, the protein synthesis was stopped by addition of a medium containing 0.5 mg/mL cycloheximide and either DMSO (0.2%) or ARN23765 (10 nM). The cells were incubated at 37 °C and lysed at various time periods (0–6 h). The whole cell extracts were then analyzed by WB, as described in the supplementary methods of the Supporting Information.

The next data set addresses T3, CFTR MSD2 (Homo sapiens, UniProt P13569).
T3 construct: A52-tagged MSD2 (residues 837–1196); expressed in transfected cells; host or cells: HEK293 (transient, JetPEI)
The description is as above. Particulars: HEK293, 10 nM 24 h, then 6 h of cycloheximide treatment. Type of data set: cell-based. The procedure:
as §1

A further data set has as its system CFTR. Details: method as in PMID 32128418. The note with it: HS-YFP assay; cited from earlier work.

The source of these data is publication PMC11873939, “Target Identification with Live-Cell Photoaffinity Labeling and Mechanism of Action Elucidation of ARN23765, a Highly Potent CFTR Corrector” (Journal of Medicinal Chemistry, 2025).

T1 sequence (P13569 whole entry): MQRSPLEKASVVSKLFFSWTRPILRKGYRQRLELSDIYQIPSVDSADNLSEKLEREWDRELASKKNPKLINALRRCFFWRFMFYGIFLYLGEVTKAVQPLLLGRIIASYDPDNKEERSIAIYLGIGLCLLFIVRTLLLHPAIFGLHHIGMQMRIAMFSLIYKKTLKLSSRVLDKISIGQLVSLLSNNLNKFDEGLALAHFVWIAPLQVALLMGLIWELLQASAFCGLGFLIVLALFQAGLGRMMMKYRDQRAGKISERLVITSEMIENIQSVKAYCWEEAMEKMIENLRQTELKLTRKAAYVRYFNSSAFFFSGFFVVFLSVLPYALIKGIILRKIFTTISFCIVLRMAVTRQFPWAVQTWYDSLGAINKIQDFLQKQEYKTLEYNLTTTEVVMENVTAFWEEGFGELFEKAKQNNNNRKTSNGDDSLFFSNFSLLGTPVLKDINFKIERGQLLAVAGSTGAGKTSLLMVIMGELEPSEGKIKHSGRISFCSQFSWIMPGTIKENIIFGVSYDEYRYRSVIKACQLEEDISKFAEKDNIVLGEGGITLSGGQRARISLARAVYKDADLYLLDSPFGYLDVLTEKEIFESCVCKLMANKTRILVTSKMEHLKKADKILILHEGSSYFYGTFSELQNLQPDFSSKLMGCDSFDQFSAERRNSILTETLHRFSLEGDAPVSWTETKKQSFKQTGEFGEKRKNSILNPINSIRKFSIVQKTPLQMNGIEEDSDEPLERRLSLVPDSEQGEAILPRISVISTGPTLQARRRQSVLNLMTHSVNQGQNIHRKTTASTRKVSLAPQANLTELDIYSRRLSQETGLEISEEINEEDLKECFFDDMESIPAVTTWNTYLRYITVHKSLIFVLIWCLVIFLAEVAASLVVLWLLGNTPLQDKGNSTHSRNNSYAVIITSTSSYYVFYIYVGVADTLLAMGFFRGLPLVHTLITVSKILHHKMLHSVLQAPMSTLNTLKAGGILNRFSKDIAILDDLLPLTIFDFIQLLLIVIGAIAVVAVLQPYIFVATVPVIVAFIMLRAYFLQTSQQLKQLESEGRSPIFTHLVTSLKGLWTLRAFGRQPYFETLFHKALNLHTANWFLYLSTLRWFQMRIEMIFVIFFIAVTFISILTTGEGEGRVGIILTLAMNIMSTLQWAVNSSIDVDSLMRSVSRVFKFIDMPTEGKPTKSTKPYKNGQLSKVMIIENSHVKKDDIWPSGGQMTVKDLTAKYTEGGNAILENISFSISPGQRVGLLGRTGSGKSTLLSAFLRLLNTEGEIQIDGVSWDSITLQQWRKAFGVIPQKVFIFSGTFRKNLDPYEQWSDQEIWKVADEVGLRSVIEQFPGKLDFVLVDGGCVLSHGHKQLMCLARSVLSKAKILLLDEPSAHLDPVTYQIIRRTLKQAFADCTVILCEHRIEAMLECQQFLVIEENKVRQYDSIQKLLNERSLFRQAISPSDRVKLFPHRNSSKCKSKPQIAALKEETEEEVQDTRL
T3 sequence (P13569 837-1196): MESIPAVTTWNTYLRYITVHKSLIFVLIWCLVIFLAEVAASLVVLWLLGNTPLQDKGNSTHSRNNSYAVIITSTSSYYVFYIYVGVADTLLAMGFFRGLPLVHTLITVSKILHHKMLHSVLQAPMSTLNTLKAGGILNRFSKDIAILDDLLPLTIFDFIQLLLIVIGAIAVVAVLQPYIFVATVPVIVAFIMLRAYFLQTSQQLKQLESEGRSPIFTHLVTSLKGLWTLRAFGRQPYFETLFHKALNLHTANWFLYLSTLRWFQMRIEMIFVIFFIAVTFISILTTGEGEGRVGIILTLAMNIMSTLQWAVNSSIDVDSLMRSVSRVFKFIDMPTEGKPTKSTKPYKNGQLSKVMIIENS
T2 sequence (P13569 1-380): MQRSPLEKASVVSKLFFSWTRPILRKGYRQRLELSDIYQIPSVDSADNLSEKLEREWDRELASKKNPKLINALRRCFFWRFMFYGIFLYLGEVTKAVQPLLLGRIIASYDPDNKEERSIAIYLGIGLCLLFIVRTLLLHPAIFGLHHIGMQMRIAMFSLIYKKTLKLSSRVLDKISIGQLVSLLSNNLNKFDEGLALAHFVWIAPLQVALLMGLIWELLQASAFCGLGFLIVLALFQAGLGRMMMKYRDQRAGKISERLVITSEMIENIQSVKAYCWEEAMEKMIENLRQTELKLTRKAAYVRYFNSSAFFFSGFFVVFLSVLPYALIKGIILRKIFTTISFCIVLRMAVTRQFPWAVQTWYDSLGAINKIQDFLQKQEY

Take `CN(C(=O)c1cccc(-n2nc(C(F)(F)F)c3c2[C@@H](Oc2ccc(C(=O)O)cc2)CCC3)c1)c1ccc2c(c1)OC(F)(F)O2` [ARN23765]: at wt-CFTR, the “Competition: CFTR recovered in pull-down by PAP_1 DS-biot or PAP_2 DS-biot after preincubation with competitor” value is “markedly reduced amount of the recovered protein”. Moreover, on CFTR MSD1, the MSD1 half-life result is on record as “increased”. Besides, the MSD2 stability result on CFTR MSD2 is “no effect”. Also, the “Effect on the protein gating” value in the data set on CFTR is “no effect”.
